These results are taken from ChEMBL document CHEMBL5143589, “Drugging the Next Undruggable KRAS Allele-Gly12Asp” (J Med Chem, 2022).

Assay [1] can be described thus: Inhibition of KRAS […] mutant (unknown origin) by HTRF assay. Also noted: species or system Homo sapiens.
Assay [2] can be described thus: Binding affinity to KRAS […] mutant (unknown origin) assessed as dissociation constant. On the set-up: species or system Homo sapiens.
The nature of assay [3]: Inhibition of ERK phosphorylation in human AGS cells. It counts as cell-based.
Another assay deals with MKN-1. In words: Antiproliferative activity against human MKN-1 cells assessed as reduction of cell viability. It counts as functional, cell-based.
The test system of the next assay is AGS. Briefly: Antiproliferative activity against human AGS cells assessed as reduction of cell viability. It is filed as functional, cell-based.
For assay [4], the target named is T1, GTPase KRas (Homo sapiens, UniProt P01116). In words: Binding affinity to KRAS (unknown origin) assessed as inhibition constant.
Target sequence in this assay (P01116 whole entry): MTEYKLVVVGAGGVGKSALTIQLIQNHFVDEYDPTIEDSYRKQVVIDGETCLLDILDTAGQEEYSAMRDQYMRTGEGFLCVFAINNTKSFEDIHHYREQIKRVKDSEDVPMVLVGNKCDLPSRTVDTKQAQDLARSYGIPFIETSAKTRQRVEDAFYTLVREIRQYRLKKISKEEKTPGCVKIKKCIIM
The target of assay [5] is T1, GTPase KRas.
Target sequence in this assay (P01116 whole entry, looked up): as the sequence (P01116 whole entry) above
Description: Binding affinity to KRAS (unknown origin) assessed as inactivation constant

One may read the IC50 as the concentration that gives 50% inhibition. The term Kd denotes the constant that tells how readily two partners part at equilibrium. By Ki is commonly meant the dissociation constant of the complex between target and ligand, obtained from inhibition or displacement.

Some results are limits rather than exact numbers.

In turn, `CN1CCC[C@H]1COc1nc(N2CC3CCC(C2)N3)c2cnc(-c3cc(O)cc4ccccc34)c(F)c2n1` returned an IC50 in assay [1] of 5 nM. Moreover, in assay [2], the Kd is 0.8 nM. Turning to `Oc1cc(-c2ncc3c(N4CC5CCC(C4)N5)nc(OC[C@@]45CCCN4C[C@H](F)C5)nc3c2F)c2ccccc2c1`, in assay [1], the IC50 is not above 2 nM. With `C#Cc1c(F)ccc2cc(O)cc(-c3ncc4c(N5CC6CCC(C5)N6)nc(OC[C@@]56CCCN5C[C@H](F)C6)nc4c3F)c12` [MRTX-1133], the results for the IC50 (in assay [3]; in the assay with MKN-1; in the assay on AGS) were 2 nM, more than 3000 nM and 6 nM, respectively. The Kd in assay [2] was determined as 0.0002 nM. Regarding `C#Cc1c(F)ccc2cccc(-c3ncc4c(N5CC6CCC(C5)N6)nc(OCC56CCCN5CCC6)nc4c3F)c12`, the 50% inhibitory concentration (IC50) in assay [1] was not above 2 nM.

Turning to `CN1CCC[C@H]1COc1nc(N2CCNCC2)c2cnc(-c3cccc4cccc(Cl)c34)c(F)c2n1`, the Kd in assay [2] was 3500 nM.

`C=CC(=O)N1CCN(c2ncnc3c(F)c(-c4c(O)cccc4F)c(Cl)cc23)CC1`: on GTPase KRas [4], the Ki was found to be 31000 nM. For the same compound, the Kinact on GTPase KRas [5] amounted to 0.03 s⁻¹.
